“Also recorded” adds a separate entry of the source.
Tests used:
[1] = system: MAPK, ERK-1 (p44) and ERK-2 (p42); assay: Estrogen-induced phosphorylation of MAPK in MCF-7 parental cells, Western blot; assay type: cell-based, human; conditions: for E2-induced rapid phosphorylation of ERK-1 and ERK-2 after pre-incubation: 1000 nM, in presence of estradiol (E2)
Description: ERD inhibition of phosphorylation of MAPK, at both extracellular signal-regulated kinases ERK-1 (p44) and ERK-2 (p42) and downstream effects. […] Thus, we measured estrogen-induced phosphorylation of MAPK by established methods (9,15,16). Briefly, MCF-7 parental cells were estrogen deprived for 48 hrs, then treated with 1 nM estradiol-17β in the presence of new compounds (10 nM-10 μM) to be tested for antagonist activity. After treatments, cell lysates were separated by SDS-PAGE followed by Western blot using a polyclonal antibody directed to phospho-p44/p42 MAP kinase (Thr202/Tyr204) (Cell Signaling). Immunodetection with antibody against total p44/p42 (Cell Signaling) was done as a control for gel loading. […] E2 but not vehicle (CN) induced rapid phosphorylation of ERK-1 (p44) and ERK-2 (p42). This activation was prevented when cells were pre-incubated with 1000 nM ICI 182,780 (ICI; Faslodex) or 1000 nM compound S15 in the presence of estradiol (E2).

[2] = molecular target: T1, estrogen receptor (Homo sapiens, UniProt P03372); assay: Specific [3H]estradiol-17β binding in MCF-7 parental cells; conditions: 10 μM compound, 2 nM [3H]estradiol-17β
T1 construct: endogenous in cells; host or cells: MCF-7 parental breast cancer cells
T1 sequence (P03372 1-595): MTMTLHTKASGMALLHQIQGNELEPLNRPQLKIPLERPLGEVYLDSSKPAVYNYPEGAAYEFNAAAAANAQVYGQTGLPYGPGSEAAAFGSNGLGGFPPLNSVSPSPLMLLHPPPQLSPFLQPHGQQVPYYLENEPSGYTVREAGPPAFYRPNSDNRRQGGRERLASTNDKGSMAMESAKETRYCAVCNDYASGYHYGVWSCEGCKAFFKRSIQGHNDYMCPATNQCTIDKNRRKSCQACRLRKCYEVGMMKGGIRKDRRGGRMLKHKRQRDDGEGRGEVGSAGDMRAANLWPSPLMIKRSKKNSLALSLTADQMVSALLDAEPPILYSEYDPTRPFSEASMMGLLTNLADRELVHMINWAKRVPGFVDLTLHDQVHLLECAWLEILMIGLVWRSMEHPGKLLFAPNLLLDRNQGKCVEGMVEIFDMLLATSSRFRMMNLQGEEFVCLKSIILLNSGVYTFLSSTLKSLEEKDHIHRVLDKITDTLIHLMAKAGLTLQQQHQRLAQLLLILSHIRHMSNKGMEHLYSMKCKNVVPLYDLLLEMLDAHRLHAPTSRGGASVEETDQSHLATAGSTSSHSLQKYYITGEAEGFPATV
Description: Specific estradiol binding: Specific estradiol-17β (E2) binding was assessed in MCF-7 parental breast cancer cells as before (14-16). Briefly, cells were incubated with 2 nM [^3H]estradiol-17β and varying concentrations (1 nM-10 μM) of new estrogen receptor downregulator (ERD) analogues. The efficiency of the binding of compounds was measured by the loss of radioactivity of the [^3H]estradiol-17β. A 100-fold molar excess of unlabeled E2 was present with [3H]estradiol-17β in paired samples for determination of displaceable binding. […] Compounds S1-S14 are test compounds different from the exemplified compounds described herein.

[3] = molecular target: T2, ER protein (Homo sapiens, UniProt P03372); assay: ER down-regulation, Western immunoblot of ER (66 kD) in MCF-7 cells; assay type: cell-based; conditions: 24 hours, 10, 100 and 1000 nM
T2 construct: endogenous in cells; host or cells: MCF-7 breast tumor cells
T2 sequence (P03372 1-595): T1 sequence (P03372 1-595)
Text: ER down-regulation: To determine if selected compounds can down-regulate ER protein, we treated cells for 24-48 hrs in vitro with candidate compounds at varying doses. Then, cells were disrupted and prepared for PAGE and Western immunoblots using anti-ERα antibodies (see FIG. 6). […] Those ERDs with optimal activity in down-regulating ER were investigated further in the chemistry laboratory to further refine and develop such agents.

[4] = system: human MCF-7 breast cancer cells; assay: MCF-7 cell proliferation, BrdU ELISA, in presence of 1 nM estradiol-17β; assay type: cell-based; conditions: for inhibition of MCF-7 cell proliferation/survival: 1 μM or 50 μM, in presence of 1 nM estradiol-17β, 72 hr; for effectiveness compared with fulvestrant in MCF-7 proliferation: same doses in vitro (1 μM or 50 μM)
Description: In experiments to assess potential proliferative effects of novel estrogen receptor ligands, human breast cancer cells were grown in phenol red-free, estrogen-free media with 1% dextran-coated charcoal-treated (DCC)-fetal bovine serum (FBS) for 48 hrs (15,44), then treated with either 1 μM or 50 μM doses of estrogen receptor antagonists in the presence of 1 nM estradiol-17β. Cell counts and viability tests (Trypan blue) were done every 24 hr for 3 days. After 72 hr, proliferation was assessed using the BrdU Cell proliferation ELISA (Roche). Cell numbers were also assessed initially by cell counts to confirm ELISA data. Each antiestrogen was tested at least in three different experiments.
In order to assess the antitumor action of novel estrogen receptor antagonists, we cultured human MCF-7 breast cancer cells with known expression of ERα. […] Cell proliferation is expressed as percentage of that determined in the 1 nM estradiol-17β-treated control group.

[5] = molecular target: T3, estrogen receptor-alpha (Homo sapiens, UniProt P03372); assay: Western immunoblot of ERα protein levels in MCF-7 cells after 48 hrs; assay type: cell-based; conditions: 1 μM or 10 μM, in presence of 1 nM estradiol-17β
T3 construct: MCF-7 breast cancer cells with high expression of ERα protein were treated with estradiol-17β; endogenous in cells; host or cells: MCF-7 human breast cancer cells
T3 sequence (P03372 1-595): T1 sequence (P03372 1-595)

[6] = system: human non-small cell lung cancer cells A549; assay: A549 non-small cell lung cancer cell proliferation, MTS assay; assay type: cell-based; conditions: 1 μM or 10 μM, 72 hours, compared with fulvestrant
Description: Cell counts and viability tests (Trypan blue) were done every 24 hours for 3 days. After 72 hours, proliferation was assessed using the CellTiter 96™ AQueous One Solution Cell Proliferation Assay (MTS) from Promega. Cell numbers were also assessed initially by cell counts to confirm ELISA data. Each antiestrogen was tested in at least in three independent experiments.

[7] = system: MCF-7 parental cells; conditions: xenografts in nude mice; cited from earlier work
[8] = system: ER+ early breast cancer; conditions: cited from earlier work
[9] = system: MCF-7/HER-2 cells; conditions: xenografts in nude mice; cited from earlier work
[10] = clinic; cited from earlier work

Row | SMILES | E2-induced rapid phosphorylation of ERK-1 and ERK-2 after pre-incubation [1] | inhibition of MCF-7 cell proliferation/survival [4] | effectiveness compared with fulvestrant in MCF-7 proliferation [4] | ERα protein expression in MCF-7 cells [5] | growth of parent MCF-7 tumors [7] | sensitivity of MCF-7/HER-2 tumors [9] | also measured
1 | C[C@]12C[C@H](Oc3ccc(N)cc3)[C@@H]3c4ccc(O)cc4CC[C@H]3[C@@H]1CC[C@@H]2O [JD105, (8S,9S,11S,13S,14S,17S)-11l-(4-aminophenoxy)-13-methyl-7,8,9,11,12,13,14,15,16,17-decahydro-6H-cyclopenta[a]phenanthrene-3,17-diol] | prevented |  |  |  |  |  | inhibition of estrogen-induced phosphorylation of MAPK (ERK-1 p44 and ERK-2 p42) ([1]; 1 nM estradiol-17β): inhibits phosphorylation of MAPK; effectiveness compared with fulvestrant in inhibiting estrogen-induced MAPK phosphorylation ([1]; breast tumor cells in vitro): as effective as fulvestrant; suppression of specific binding of [3H]estradiol-17β [2]: suppressed; suppression of specific binding of [3H]estradiol-17β ([2]; listed as S15): suppressed effectively; ER protein levels in MCF-7 cells [3]: reduces ER protein levels
2 | C[C@]12C[C@H](Oc3ccc(NC(=O)CCCCN4CCCCC4)c(F)c3)[C@@H]3c4ccc(O)cc4CC[C@H]3[C@@H]1CC[C@@H]2O [JD140, N-(4-(((8S,9S,11S,13S,14S,17S)-3,17-Dihydroxy-13-methyl-7,8,9,11,12,13,14,15,16,17-deca-hydro-6H-cyclopenta[a]phenanthren-11-yl)oxy)-2-fluorophenyl)-5-(piperidin-1-yl)pentan-amide] |  | significant inhibition | more effective than the ER-downregulator fulvestrant | down-regulated |  |  | antiproliferative effects in A549 cells [6]: significant antiproliferative effects
3 | CC/C(=C(\c1ccccc1)c1ccc(OCCN(C)C)cc1)c1ccccc1 [tamoxifen] |  |  |  |  | suppressed | insensitive | reduction in disease recurrence [8]: 39%; reduction in mortality [8]: 31%
4 | C[C@]12CC[C@@H]3c4ccc(O)cc4C[C@@H](CCCCCCCCC[S+]([O-])CCCC(F)(F)C(F)(F)F)[C@H]3[C@@H]1CC[C@@H]2O (stereo partly drawn) [fulvestrant] | prevented |  |  |  | suppressed | partially sensitive | bioavailability [10]: very low bioavailability; also recorded: low bioavailability
5 | C[C@]12C[C@H](Oc3ccc(N)c(C(F)(F)F)c3)[C@@H]3c4ccc(O)cc4CC[C@H]3[C@@H]1CC[C@@H]2O [JD128, (8S,9S,11S,13S,14S,17S)-11-(4-Amino-3-(trifluoromethyl)phenoxy)-13-methyl-7,8,9,11,12,13,14,15,16,17-decahydro-6H-cyclopenta[a]phenanthrene-3,17-diol] |  | significant inhibition | more effective than the ER-downregulator fulvestrant | greatest effect at suppressing estrogen receptor-alpha expression |  |  | 

Source: patent publication US10400006B2, “Estrogen receptor modulators” (THE REGENTS OF THE UNIVERSITY OF CALIFORNIA, priority 2014, dated 2019)
